Structures can show the parent of a compound that is named as a salt.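 Following 48 hours of exposure in 96-well plates, responses at five concentrations were used to interpolate endpoints linearly. GI50 = concentration required for 50% inhibition of growth. The concentration for full growth arrest is given as TGI.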 Where a SMILES comes first, the peptide text is derived from it. The star is where a group is joined. Tfa = O=C(C(F)(F)F)*
Columns and labels:
Assay in all cases: NCI anticancer screen, dose series, 48 h
M14 melanoma = test system: M14 melanoma
MDA-MB-435 = test system: MDA-MB-435
COLO 205 colon = test system: COLO 205 colon
SR leukemia = test system: SR leukemia
OVCAR-4 ovarian = test system: OVCAR-4 ovarian
EKVX NSCLC = test system: EKVX NSCLC
SW-620 colon = test system: SW-620 colon
U251 CNS = test system: U251 CNS
SK-MEL-2 melanoma = test system: SK-MEL-2 melanoma
HCC-2998 colon = test system: HCC-2998 colon

| Compound | TGI (M14 melanoma) | TGI (MDA-MB-435) | TGI (COLO 205 colon) | TGI (SR leukemia) | TGI (OVCAR-4 ovarian) | TGI (EKVX NSCLC) | TGI (SW-620 colon) | TGI (U251 CNS) | TGI (SK-MEL-2 melanoma) | TGI (HCC-2998 colon) | GI50 (M14 melanoma) | GI50 (MDA-MB-435) | GI50 (SR leukemia) | GI50 (OVCAR-4 ovarian) | GI50 (HCC-2998 colon) | GI50 (EKVX NSCLC) | GI50 (SW-620 colon) | GI50 (U251 CNS) | GI50 (SK-MEL-2 melanoma) |
| --- | --- | --- | --- | --- | --- | --- | --- | --- | --- | --- | --- | --- | --- | --- | --- | --- | --- | --- | --- |
| Cc1c(NC(=S)NN)c(=O)n(-c2ccccc2)n1C | > 100 µM | > 100 µM | > 100 µM | > 100 µM | > 100 µM | > 100 µM | > 100 µM | > 100 µM | > 100 µM |  |  |  |  |  |  |  |  |  |  |
| O=C(Nn1c(-c2ccccc2)nc2ccccc2c1=O)c1ccc(CS)cc1 | > 100 µM | > 100 µM | > 100 µM | > 100 µM | > 100 µM | > 100 µM | > 100 µM | > 100 µM |  | > 100 µM |  |  |  |  |  |  |  |  |  |
| C/C=C/[C@H]1O[C@@](O)([C@@H](C)[C@H](O)[C@H](C)[C@H]2OC(=O)/C(OC)=C/C(C)=C/[C@@H](C)[C@@H](O)[C@@H](CC)[C@@H](O)[C@H](C)C/C(C)=C/C=C/[C@@H]2OC)C[C@H](OC2CC(O)C(O)C(C)O2)[C@@H]1C (some centres undefined) | < 0.0075 µM | 8.87 µM | 3.96 µM | 0.75 µM | 32 µM | 11.8 µM | 10.4 µM | 11.4 µM |  | 11.8 µM |  |  |  |  |  |  |  |  |  |
| Nc1ccc(S(=O)(=O)Nc2nnc(S(N)(=O)=O)s2)cc1 | > 100 µM | > 100 µM | > 100 µM | > 100 µM | > 100 µM | > 100 µM | > 100 µM | > 100 µM |  | > 100 µM |  |  |  |  |  |  |  |  |  |
| NCCSc1nc2ccccc2s1 | > 100 µM | 69 µM | > 100 µM | 79.5 µM | > 100 µM | 80.6 µM | > 100 µM | 48.3 µM | 82.2 µM |  |  |  |  |  |  |  |  |  |  |
| Cc1cc(N(CCC#N)CCC#N)ccc1/C(N=Nc1ccc(Cl)cc1)=N\NC(=O)c1cc(Cl)ccc1O | > 100 µM | > 100 µM | > 100 µM | > 100 µM | > 100 µM | > 100 µM |  | > 100 µM | > 100 µM | > 100 µM |  |  |  |  |  |  |  |  |  |
| O=C(O)CC(NC(=O)C(F)(F)F)C(=O)NC(Cc1ccc(O)cc1)C(=O)O (stereo not drawn) (Tfa-Asp-Tyr-OH; configuration not given here) | > 50 µM | > 50 µM | > 50 µM | > 50 µM |  | > 50 µM | > 50 µM | > 50 µM | > 50 µM | > 50 µM |  |  |  |  |  |  |  |  |  |
| N#CN=C(N)c1sc2nc3c(c(-c4ccc(Br)cc4)c2c1N)CCCC3 | > 100 µM | 13.6 µM | 44.8 µM | 50.3 µM | 26.9 µM |  | > 100 µM | > 100 µM | 32.8 µM | 60.3 µM |  |  |  |  |  |  |  |  |  |
| Cc1ccc(C2=Nc3cc(C)c(Cl)cc3S(=O)(=O)NN2)cc1 | > 100 µM | > 100 µM | > 100 µM | 53 µM | > 100 µM | > 100 µM | > 100 µM | > 100 µM |  | > 100 µM |  |  |  |  |  |  |  |  |  |
| CC1CC(C)C(O)C(C2CC(CC(=O)NC3CCCCC3)CC(=O)O2)C1 (centres undefined) | > 100 µM | > 100 µM | > 100 µM | > 100 µM | > 100 µM | > 100 µM | > 100 µM | > 100 µM |  | > 100 µM |  |  |  |  |  |  |  |  |  |
| CC1=NCCN=C(C)C1N=Nc1ccc2nc(C)[nH]c2c1 | 16.8 µM | 22.3 µM | 53.6 µM |  | 30.6 µM | 39.6 µM | 33.4 µM | > 100 µM | 46.3 µM | 41.1 µM |  |  |  |  |  |  |  |  |  |
| COC(=O)c1c2c(cc3c1CC1(Cc4cc5c(c(C=O)c4C1)CCCC5)C3)CCCC2 (centres undefined) | > 100 µM | > 100 µM | 36.6 µM | > 100 µM | > 100 µM | > 100 µM |  | > 100 µM | 85.1 µM | > 100 µM |  |  |  |  |  |  |  |  |  |
| Cc1cc(N(CCC#N)CCC#N)ccc1/C=C1N=C(/C=C\c2ccccc2)OC\1=O | > 100 µM |  | > 100 µM | > 100 µM | > 100 µM | > 100 µM | > 100 µM | > 100 µM | > 100 µM | > 100 µM |  |  |  |  |  |  |  |  |  |
| C=C(CN(C)C)C(=O)c1ccccc1C | 33.8 µM |  | 31.9 µM | 47.2 µM | > 100 µM | > 100 µM | 33.1 µM | > 100 µM | > 100 µM | > 100 µM |  |  |  |  |  |  |  |  |  |
| Cc1ccccc1C(=O)c1c(O)c2c(c(O)c1Br)CCCC2 | 29.1 µM |  | 34.2 µM | 44.5 µM | 28.9 µM | 34.3 µM | 34.1 µM | 31.5 µM | 31.3 µM | 34 µM |  |  |  |  |  |  |  |  |  |
| Cc1ccc2c3c1O[C@H]1c4[nH]c5ccccc5c4C[C@@]4(O)[C@@H](C2)N(C)CC[C@]314 | 31.1 µM | 28.3 µM | 30.2 µM | 41.9 µM | 34 µM |  | 30.1 µM | 29.5 µM | 35.3 µM |  |  |  |  |  |  |  |  |  |  |
| CC[C@@]1(N(C)C)C(=O)OCc2c1cc1n(c2=O)Cc2cc3ccccc3nc2-1 | > 100 µM | > 100 µM | > 100 µM |  | > 100 µM | > 100 µM | > 100 µM | > 100 µM | 77.5 µM | > 100 µM |  |  |  |  |  |  |  |  |  |
| C/C(CC/C(C)=N/O)=N\O | > 100 µM | > 100 µM | > 100 µM |  | > 100 µM | > 100 µM | > 100 µM | > 100 µM | > 100 µM | > 100 µM |  |  |  |  |  |  |  |  |  |
| NCC(=O)NC1(c2cc3ccccc3s2)CCCCC1 | 34 µM | > 100 µM | 32.5 µM | 19.2 µM | > 100 µM | > 100 µM | > 100 µM |  |  | 29 µM |  |  |  |  |  |  |  |  |  |
| ClCCCN(CCCCl)c1ccc(C=Nc2cccc(Cl)c2)cc1 | > 76.3 µM | > 80.5 µM | > 100 µM |  | > 79.5 µM | > 100 µM | > 100 µM | > 89.1 µM | > 100 µM | > 100 µM |  |  |  |  |  |  |  |  |  |
| O=C(Nc1cccc(-n2ccc3c(NC(=O)c4ccccc4)nccc32)c1)c1ccc(N2CCOCC2)c(C(F)(F)F)c1 | > 100 µM | 0.046 µM |  | > 100 µM | > 70.7 µM | > 100 µM | > 100 µM | > 100 µM | 20.1 µM |  | 0.0386 µM | 0.0191 µM | 0.045 µM | 0.168 µM | 0.0614 µM | 0.212 µM | 0.0412 µM | 0.0474 µM | 0.253 µM |
| O=C(Nc1nnc(-c2ccccc2)o1)C(SC(=S)N1CCCCC1)c1ccccc1 (centres undefined) | 27.4 µM | 73.3 µM | > 100 µM | > 100 µM | > 100 µM | 64.2 µM | > 100 µM | 87.2 µM | 51.1 µM |  |  |  |  |  |  |  |  |  |  |
